From patent US8445207B2, “Genes based on thalidomide, valproic acid and methotrexate treatment for screening of drug inducing teratogenicity and screening method using thereof” (priority 2009, dated 2013)

How the values were obtained:
[1] = tested on: JEG-3 (human placental choriocarcinoma cell line); experiment: Oligo microarray gene expression in drug-treated JEG-3 (Cy5 treated / Cy3 control); format: cell-based
Procedure: Thalidomide, valproic acid, and methotrexate were treated to human placental choriocarcinoma cell line at the concentrations determined above (Inhibition concentration: the concentration that can kill approximately 30% of the total cells, that is the concentration of 70% viability, IC30). mRNA was extracted from the drug treated cell line, followed by synthesis of cDNA which was labeled with Cy5. The non-treated control was labeled with Cy3. The fluorescence labeled cDNA was hybridized with 41K (thalidomide), 44K (valproic acid, methotrexate) human whole genome oligomicroarray chips (Agilent, USA), followed by fluorescent image scanning to analyze gene expression patterns (see FIG. 4). Volcano Plot of each substance was also attached. Y axis indicates probability (generally converted by −log 10). X axis indicates differential expression, which is presented by log-ratio.
Total RNA was separated from the treated cell by using trizol reagent (Invitrogen Life Technologies, USA) according to the manufacture's instructions, followed by purification using RNeasy mini kit (Qiagen, USA). Genomic DNA was eliminated during RNA purification using RNase-free DNase set (Qiagen, USA).
30 μg of the total RNA obtained above and 2 μg (1 μg/μl) of oligo (dT) primer were mixed, followed by reaction at 65° C. for 10 minutes. Annealing was performed in ice right after the reaction. Reagents were prepared as shown in Table 1 for reverse transcription of the annealed RNA.
The total RNA separated from the control group JEG-3 cells was labeled with Cy3-dUTP (green) and the total RNA separated from the experiment group JEG-3 cells treated with thalidomide, valproic acid and methotrexate was labeled with Cy5-dUTP (red). At this time, the two samples were mixed and purified by Microcon YM-30 column (Millipore, USA).
Hybridization and washing were performed by the manufacturer's (GenoCheck, Korea) instructions. Particularly, hybridization was performed in a 62° C. oven for 12 hours. As a DNA microarray chip, 44 k whole human genome oligo microarray (Agilent, USA) was used. After washing (2 minutes with 2×SSC/0.1% SDS, three minutes with 1×SSC, 2 minutes with 0.2×SSC), the slide was dried by centrifugation at 800 rpm for 3 minutes.
Hybridization image on the slide was scanned with Genepix 4000B (Axon Instruments, USA). Fluorescence image of the chip on which non-hybridized genes had been washed out was obtained by using laser fluorescence scanner. Green fluorescence image indicates the activity of gene specifically expressed in the control group and red fluorescence image indicates the activity of gene specifically expressed in the experimental group. […] Scanned image was analyzed by using GenePix 4.1 software (Axon Instruments, USA) to calculate gene expression rate.

[2] = tested on: JEG-3 (human placental choriocarcinoma cell line); experiment: Real-time RT-PCR quantification of gene expression in drug-treated JEG-3; format: cell-based
Procedure: My IQ Real-Time PCR (Bio-Rad, USA) was performed to quantify the expressions of those genes.
Particularly, cDNA was synthesized using oligo dT primer and Superscript kit (Omniscipt™ kit, Qiagen, Co., USA) by reverse transcription. 0.2 μl of the cDNA, 3.8 μl of water, 0.5 μg of a sense primer, 0.5 μg of an antisense primer, and […] of SYBR Green I supermix (Bio-Rad, USA) were mixed, which was placed in a PCR tube, followed by real-time RT-PCR in My IQ real-time PCR machine as follows: Step 1: 95°, 3 minutes; Step 2 (45 cycles): Step 2-1: 95°, 10 seconds; Step 2-2: 55-65° 45 seconds; Step 3: 95°, 1 minute; Step 4: 55°, 1 minute; Step 5 (80 cycles): 55°, 10 seconds. SYBR green I (Bio-Rad, USA) staining was performed to quantify the PCR product. SYBR I staining is the staining method using double stranded DNA binding. So, the more double stranded DNA is generated during PCR, the stronger the fluorescence intensity becomes. First, target gene and endogenous control (GAPDH) primers were added to SYBR green master mix, followed by PCR. Then, primer optimization was performed to determine a proper concentration. Synthesized cDNA and each primer were mixed (Table 4), to which SYBR master mix was added, followed by PCR.

[3] = out of 21797 (thalidomide), 21921 (valproic acid), 24006 (methotrexate) genes
[4] = treated at IC30, up-regulated gene, (k) common gene which has no function

O=C1CCC(N2C(=O)c3ccccc3C2=O)C(=O)N1 (stereo not shown) [THA, thalidomide]
cDNA microarray (Cy3/Cy5 ratio), KIAA0310 ([1]; GenBank AB002308): 1.94
cDNA microarray (Cy3/Cy5 ratio), ATP10B ([1]; GenBank AB018258): 3.11
cDNA microarray (Cy3/Cy5 ratio), TTF2 ([1]; GenBank AB209845): 1.58
cDNA microarray (Cy3/Cy5 ratio), TncRNA ([1]; GenBank AF001893): 1.5
cDNA microarray (Cy3/Cy5 ratio), C4orf19 ([1]; GenBank AK001879): 1.51
cDNA microarray (Cy3/Cy5 ratio), CYP19A1 ([1]; GenBank AK023571): 2.03
cDNA microarray (Cy3/Cy5 ratio), SLC40A1 ([1]; GenBank AK023574): 1.5
cDNA microarray (Cy3/Cy5 ratio), ABTB2 ([1]; GenBank AK095632): 1.78
cDNA microarray (Cy3/Cy5 ratio), TUBB3 ([1]; GenBank AK122757): 2.03
cDNA microarray (Cy3/Cy5 ratio), MGC27016 ([1]; GenBank AK125877): 1.51
cDNA microarray (Cy3/Cy5 ratio), GLCCI1 ([1]; GenBank AK126731): 1.56
cDNA microarray (Cy3/Cy5 ratio), TFCP2L4 ([1]; GenBank BC036890): 1.61
cDNA microarray (Cy3/Cy5 ratio), RGS2 ([1]; GenBank BC042755): 1.78
cDNA microarray (Cy3/Cy5 ratio), SIAT7A ([1]; GenBank BC063830): 2.54
cDNA microarray (Cy3/Cy5 ratio), B7-H4 ([1]; GenBank BX648021): 0.52
cDNA microarray (Cy3/Cy5 ratio), COBLL1 ([1]; GenBank BX649112): 1.85
cDNA microarray (Cy3/Cy5 ratio), CGA ([1]; GenBank NM_000735): 3.04
cDNA microarray (Cy3/Cy5 ratio), PARP1 ([1]; GenBank NM_001618): 0.66
cDNA microarray (Cy3/Cy5 ratio), SERPINB9 ([1]; GenBank NM_004155): 1.73
cDNA microarray (Cy3/Cy5 ratio), ST8SIA4 ([1]; GenBank NM_005668): 1.69
cDNA microarray (Cy5 treated / Cy3 control ratio), ABL1 ([1]; GenBank NM_007313): 0.65
cDNA microarray (Cy3/Cy5 ratio), GRLF1 ([1]; GenBank NM_024342): 0.55
cDNA microarray (Cy3/Cy5 ratio), LGP1 ([1]; GenBank NM_032484): 0.58
cDNA microarray (Cy3/Cy5 ratio), NCOA3 ([1]; GenBank NM_181659): 1.64
cDNA microarray (Cy3/Cy5 ratio), SR140 ([1]; GenBank XM_031553): 0.5
cDNA microarray (Cy3/Cy5 ratio), SLC7A8 ([1]; GenBank Y18483): 1.71
Ratio of intermediate value, IGF2 ([1]; Genbank AK074614, drug at IC30): 0.64
Ratio of intermediate value, GRLF1 ([1]; Genbank BI494022, NM_024342, drug at IC30): 0.55
Ratio of intermediate value, B7-H4 ([1]; Genbank BX648021, drug at IC30): 0.52
Ratio of intermediate value, PARP1 ([1]; Genbank NM_001618, drug at IC30): 0.66
Ratio of intermediate value, NRP1 ([1]; Genbank NM_003873, drug at IC30): 0.62
Ratio of intermediate value, HAND1 ([1]; Genbank NM_004821, drug at IC30): 0.61
Ratio of intermediate value, ABL1 ([1]; Genbank NM_007313, drug at IC30): 0.65
Ratio of intermediate value, LGP1 ([1]; Genbank NM_032484, drug at IC30): 0.58
Ratio of intermediate value, SR140 ([1]; Genbank XM_031553, drug at IC30): 0.50
genes down-regulated (ratio of intermediate value less than 0.666) ([1]; JEG-3, drug at IC30, 48 hours): 0.34%
genes up-regulated (ratio of intermediate value more than 1.5) ([1]; JEG-3, drug at IC30, 48 hours): 0.95%
number of genes down-regulated [1, 3]: 74
number of genes up-regulated [1, 3]: 208
Ratio of intermediate value, gene ATP10B (AB018258, ATPase, Class V, type 10B) [1, 4]: 3.11
Ratio of intermediate value, gene BQ186674 (cDNA clone UI-E-EJ1-ajr-f-10-0-UI, Hypothetical gene supported by AF086204) [1, 4]: 1.60
Ratio of intermediate value, gene BX111592 (Transcribed locus, moderately similar to XP_066443.6 PREDICTED: similar to paraneoplastic antigen like 6A) [1, 4]: 2.17
Ratio of intermediate value, gene CGA (NM_000735, Glycoprotein hormones, alpha polypeptide) [1, 4]: 3.04
Ratio of intermediate value, gene COBLL1 (BX649112, COBL-like 1) [1, 4]: 1.85
Ratio of intermediate value, gene CYP19A1 (AK023571, Cytochrome P450, family 19, subfamily A, polypeptide 1) [1, 4]: 2.03
Ratio of intermediate value, gene FLJ11017 (AK001879, Hypothetical protein FLJ11017) [1, 4]: 1.51
Ratio of intermediate value, gene GLCCI1 (AK126731, Glucocorticoid induced transcript 1) [1, 4]: 1.56
Ratio of intermediate value, gene KIAA0310 (AB002308, KIAA0310) [1, 4]: 1.94
Ratio of intermediate value, gene MGC27016 (AK125877, Hypothetical protein MGC27016) [1, 4]: 1.51
Ratio of intermediate value, gene NCOA3 (NM_181659, Nuclear receptor coactivator 3) [1, 4]: 1.64
Ratio of intermediate value, gene RGS2 (BC042755, Regulator of G-protein signalling 2, 24 kDa) [1, 4]: 1.78
Ratio of intermediate value, gene SIAT7A (BC063830, ST6 (alpha-N-acetyl-neuraminyl-2,3-beta-galactosyl-1,3)-N-acetylgalactosaminide alpha-2,6-sialyltransferase 1) [1, 4]: 2.54
Ratio of intermediate value, gene SIAT8D (NM_005668, ST8 alpha-N-acetyl-neuraminide alpha-2,8-sialyltransferase 4) [1, 4]: 1.69
Ratio of intermediate value, gene SLC7A8 (Y18483, Solute carrier family 7 (cationic amino acid transporter, y+ system), member 8) [1, 4]: 1.71
Ratio of intermediate value, gene SLC40A1 (AK023574, Solute carrier family 40 (iron-regulated transporter), member 1) [1, 4]: 1.50
Ratio of intermediate value, gene TFCP2L4 (BC036890, Grainyhead-like 3 (Drosophila)) [1, 4]: 1.61
Ratio of intermediate value, gene TTF2 (AB209845, Transcription termination factor, RNA polymerase II) [1, 4]: 1.58
Ratio of intermediate value, gene TUBB3 (AK122757, Tubulin, beta 3) [1, 4]: 2.03
Ratio of intermediate value, gene TncRNA (AF001893, Trophoblast-derived noncoding RNA) [1, 4]: 1.50
Real time PCR (Relative ratio), KIAA0310 ([2]; GenBank AB002308): 4.78
Real time PCR (Relative ratio), ATP10B ([2]; GenBank AB018258): 4.7689
Real time PCR (Relative ratio), TTF2 ([2]; GenBank AB209845): 1.6625
Real time PCR (Relative ratio), TncRNA ([2]; GenBank AF001893): 5.9587
Real time PCR (Relative ratio), C4orf19 ([2]; GenBank AK001879): 1.6143
Real time PCR (Relative ratio), CYP19A1 ([2]; GenBank AK023571): 2.6408
Real time PCR (Relative ratio), SLC40A1 ([2]; GenBank AK023574): 2.1558
Real time PCR (Relative ratio), ABTB2 ([2]; GenBank AK095632): 1.4359
Real time PCR (Relative ratio), TUBB3 ([2]; GenBank AK122757): 2.8114
Real time PCR (Relative ratio), MGC27016 ([2]; GenBank AK125877): 2.3438
Real time PCR (Relative ratio), GLCCI1 ([2]; GenBank AK126731): 1.5509
Real time PCR (Relative ratio), TFCP2L4 ([2]; GenBank BC036890): 2.5111
Real time PCR (Relative ratio), RGS2 ([2]; GenBank BC042755): 3.4255
Real time PCR (Relative ratio), SIAT7A ([2]; GenBank BC063830): 2.5019
Real time PCR (Relative ratio), B7-H4 ([2]; GenBank BX648021): 0.5
Real time PCR (Relative ratio), COBLL1 ([2]; GenBank BX649112): 1.5201
Real time PCR (Relative ratio), CGA ([2]; GenBank NM_000735): 2.9963
Real time PCR (Relative ratio), PARP1 ([2]; GenBank NM_001618): 0.805
Real time PCR (Relative ratio), SERPINB9 ([2]; GenBank NM_004155): 2.2852
Real time PCR (Relative ratio), ST8SIA4 ([2]; GenBank NM_005668): 1.8635
Real time PCR (Relative ratio), ABL1 ([2]; GenBank NM_007313): 0.6781
Real time PCR (Relative ratio), GRLF1 ([2]; GenBank NM_024342): 0.689
Real time PCR (Relative ratio), LGP1 ([2]; GenBank NM_032484): 0.4867
Real time PCR (Relative ratio), NCOA3 ([2]; GenBank NM_181659): 2.9283
Real time PCR (Relative ratio), SR140 ([2]; GenBank XM_031553): 0.6423
Real time PCR (Relative ratio), SLC7A8 ([2]; GenBank Y18483): 1.6327
